Laboratory results taken from patent publication US12338203B2 (TAISHO PHARMACEUTICAL CO., LTD., priority 2019, dated 2025).

Molecular target: T1, human LPAR1 (Homo sapiens, UniProt Q92633)
T1 construct: expressed in transfected cells
Test: Test Example 1: antagonism against response of LPA-induced increase in intracellular Ca2+ concentration in RH7777 cells stably expressing human LPAR1
Format: cell-based
Conditions: RH7777 cells stably expressing human LPAR1; Fluo-4 fluorescence, FDSS6000; read-out: IC50 value (concentration producing 50% antagonism against response of LPA-induced increase in intracellular Ca2+ concentration) (converted)
Outline: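 Ca2+ flux read at 540 nm emission (480 nm excitation) after LPA addition to human LPAR1-expressing RH7777 cells exposed to compound for 30 min, 37 °C, pH 7.4 HEPES-buffered HBSS. Response relative to no-compound control after basal subtraction; IC50 fitted from concentration–response.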

T1 sequence (Q92633 whole entry): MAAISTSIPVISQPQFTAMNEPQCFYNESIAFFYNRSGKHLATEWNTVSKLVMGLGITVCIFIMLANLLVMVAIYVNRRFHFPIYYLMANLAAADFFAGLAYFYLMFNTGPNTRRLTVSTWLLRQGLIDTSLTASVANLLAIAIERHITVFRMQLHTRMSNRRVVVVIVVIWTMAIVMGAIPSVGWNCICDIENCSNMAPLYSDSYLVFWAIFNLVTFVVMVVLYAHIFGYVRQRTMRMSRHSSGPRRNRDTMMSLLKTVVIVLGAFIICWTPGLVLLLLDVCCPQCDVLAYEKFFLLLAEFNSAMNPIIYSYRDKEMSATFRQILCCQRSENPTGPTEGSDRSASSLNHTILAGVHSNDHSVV

Row | SMILES | IC50 [nM]
1 | CCOc1c(C(C)=O)ccc([C@@H](C)N(CCCCc2ccccc2)C(=O)NC2(C(=O)O)CC(OCC)C2)c1C (stereo partly shown) [Example 1-102] | 2.03
2 | CCOc1cc([C@@H](C)N(CCCCc2ccccc2)C(=O)NC2CC(C(=O)O)N(C(C)=O)C2)cc(OCC)c1C(C)=O (stereo partly shown) [Example 1-164] | 38.4
3 | CCOc1cc(C(C)N(CCCCc2ccccc2)C(=O)NC(CC(=O)O)C(=O)O)cc(OCC)c1C (stereo not shown) [Example 1-12] | 3600
4 | CCOC1CC(NC(=O)N(CCOC(C)c2ccccc2)C(C)c2cc(OC)c(C3CC3)c(OC)c2)(C(=O)O)C1 (stereo not shown) [Example 5-167] | 5.26
5 | CCOc1cc([C@@H](C)N(CCCCc2ccccc2)C(=O)N(C)C2(C(=O)O)CC(F)(F)C2)cc(OCC)c1C [Example 2-1, 1-[{[(1R)-1-(3,5-Diethoxy-4-Methylphenyl)Ethyl](4-Phenylbutyl) Carbamoyl}(Methyl)Amino]-3,3-Difluorocyclobutane-1-Carboxylic Acid] | 608
6 | CCNc1cc([C@@H](C)N(CCCCc2ccccc2)C(=O)NC2(C(=O)O)CC(F)(F)C2)cc(O)c1C(C)=O [Example 5-112] | 15.1
7 | CCOc1cc([C@@H](C)N(Cc2cc3ccccc3[nH]2)C(=O)NC2(C(=O)O)CC(F)(F)C2)cc(OCC)c1C [Example 4-32] | 733
8 | CCOc1cc(C(C)N(CCCCc2ccccc2)C(=O)NC2(c3nn[nH]n3)CC(OC)C2)cc(OCC)c1C(C)=O (stereo not shown) [Example 10-14] | 5.08
9 | CCOc1cc([C@@H](C)N(CC(C)CCc2ccccc2)C(=O)NC2(C(=O)O)Cc3ccccc3C2)cc(OCC)c1C (stereo partly shown) [Example 4-39] | 46.4
10 | CCOc1cc([C@@H](C)N(CCC(F)(F)Cc2ccccc2)C(=O)NC2(C(=O)O)CC(OCC)C2)cc(OCC)c1C1CC1 (stereo partly shown) [Example 4-94] | 3.61
11 | CCOc1cc(C(C)N(CCOCc2ccccc2)C(=O)NC2(C(=O)O)CC2)c(C)c(OCC)c1C(C)=O (stereo not shown) [Example 5-186] | 2.63
12 | CCOC(=O)C1(NC(=O)N(CCO[C@@H](C)c2ccccc2)C(C)c2cc(OCC)c(C(C)=O)c(OCC)c2Cl)CC1 (stereo partly shown) [Example 6-8] | 2840
13 | CCOc1cc([C@@H](C)N(CCCCc2ccccc2)C(=O)NC2CCC2C(=O)O)cc(OCC)c1C(C)=O (stereo partly shown) [Example 1-126] | 3.13
14 | CCOc1cc(C(C)N(CCO[C@@H](C)c2ccccc2)C(=O)N[C@]2(C(=O)O)C[C@H](OCC)C2)cc(OCC)c1C(C)O (stereo partly shown) [Example 4-133] | 5.7
15 | CCOc1cc([C@@H](C)N(CCOCc2ccccc2)C(=O)NC2(C(=O)O)CC(F)(F)C2)c(Cl)c(OCC)c1C(C)O (single isomer, unassigned) [Example 5-55] | 1.09
16 | CCOc1cc([C@@H](C)N(CCC(F)(F)Cc2ccccc2)C(=O)NC2CC(C(=O)O)C2)cc(OCC)c1C1CC1 (stereo partly shown) [Example 4-83] | 80.8
17 | CCOc1cc([C@@H](C)N(CCOCc2ccccc2)C(=O)NC2(C(=O)O)CC(F)(F)C2)cc(OCC)c1C(C)=O [Example 4-102] | 0.815
18 | CCOc1cc([C@@H](C)N(CCO[C@H](C)c2ccccc2)C(=O)NC2(C(=O)O)CC(F)(F)C2)cc(OCC)c1C1CC1 [Example 4-150] | 1.55
19 | CCOc1cc(C(C)N(CCO[C@@H](C)c2ccccc2)C(=O)NC2(C(=O)OC)CC(F)(F)C2)cc(OCC)c1C(C)=O (stereo partly shown) [Example 6-6] | 435
20 | CCOc1cc([C@@H](C)N(CCCCc2ccccc2)C(=O)N[C@]2(C(=O)O)C[C@H](OC)C2)cc(OCC)c1C(C)=O [Example 1-87, Cis-1-({[(1R)-1-(4-Acetyl-3,5-Diethoxyphenyl)Ethyl](4-Phenylbutyl) Carbamoyl}Amino)-3-Methoxycyclobutane-1-Carboxylic Acid] | 1.37

Row | SMILES | IC50 [nM]
21 | CCOc1cc([C@@H](C)N(CCCCc2ccccc2)C(=O)NC2CCCC2C(=O)O)cc(OCC)c1C(C)=O (stereo partly shown) [Example 1-135] | 2.17
22 | CCOc1cc([C@@H](C)N(CCOCc2ccccc2)C(=O)NC2CCOCC2C(=O)O)c(Cl)c(OCC)c1C(C)O (single isomer, unassigned) [Example 5-69] | 3.3
23 | CCOc1cc(C(C)N(CCOCc2ccccc2)C(=O)N[C@]2(C(=O)O)C[C@@H](OCC)C2)c(C)c(OCC)c1C(C)=O (stereo partly shown) [Example 5-214] | 1.92
24 | CCOc1cc(C(C)N(CCOC(C)c2ccccc2)C(=O)NC2(C(=O)O)CC(OC)C2)c(Cl)c(OCC)c1C(C)=O (stereo not shown) [Example 5-208] | 3.5
25 | CCOc1cc(C(C)N(CCOC(C)c2ccccc2)C(=O)NC2(c3nn[nH]n3)CC(OC)C2)cc(OCC)c1C1CC1 (stereo not shown) [Example 10-15] | 2.38
26 | CCOc1cc([C@@H](C)N(CCOCc2ccccc2)C(=O)NC2(C(=O)O)CCOCC2)cc(OCC)c1C(C)=O [Example 4-110] | 4.31
27 | CCOc1cc([C@@H](C)N(CCOCc2ccccc2)C(=O)NC2(C(=O)O)CC(F)(F)C2)c(Cl)c(OCC)c1C(C)=O [Example 5-38] | 0.468
28 | CCOc1cc(C(C)N(CCO[C@@H](C)c2ccccc2)C(=O)NC2(C(=O)OC)CC(OCC)C2)cc(OCC)c1C(C)=O (stereo partly shown) [Example 6-4] | 344
29 | Cc1cc(C)cc(CN(CCCCc2ccccc2)C(=O)NC2(C(=O)O)CCCC2)c1 [Example 5-23] | 3930
30 | CCOc1cc([C@@H](C)N(CCCCc2ccccc2)C(=O)NC2(C(=O)O)CC(OCC)C2)cc(OCC)c1C(C)=O (stereo partly shown) [Example 1-95] | 3.09
31 | CCOc1cc([C@@H](C)N(CCO[C@@H](C)c2ccccc2)C(=O)NC2(C(=O)O)CC2)cc(OCC)c1C(C)=O [Example 4-111] | 3.07
32 | CCOc1cc(C(C)N(CCOC(C)c2ccccc2)C(=O)NC2(C(=O)O)CC(OC)C2)c(Cl)c(OCC)c1C1CC1 (stereo not shown) [Example 5-207] | 1.36
33 | CCOc1cc([C@@H](C)N(CCCC(F)(F)c2ccccc2)C(=O)NC2(C(=O)O)CC(OC)C2)cc(OCC)c1C(C)O (single isomer, unassigned) [Example 4-61] | 3.99
34 | CCOc1cc([C@@H](C)N(CCC(F)(F)Cc2ccccc2)C(=O)NC2(C(=O)O)CCOCC2)c(Cl)c(OCC)c1C(C)O (stereo partly drawn) [Example 5-67, 4-{[{(1R)-1-[2-Chloro-3,5-Diethoxy-4-(1-Hydroxyethyl)Phenyl]Ethyl}(3,3-Difluoro-4-Phenylbutyl) Carbamoyl]Amino}Oxane-4-Carboxylic Acid] | 43.4
35 | CCOc1cc(C(C)N(CCCCc2ccccc2)C(=O)NC2(C(=O)O)CC(F)(F)C2)ccc1C(C)=O (stereo not shown) [Example 5-8] | 3.62
36 | CCOc1cc([C@@H](C)N(CCCCc2ccccc2)C(=O)NC2(C(=O)O)CC(=O)C2)cc(OCC)c1C [Example 1-111] | 2.31
37 | COc1cc(CN(CCCCc2ccccc2)C(=O)NCC(C(=O)O)C(C)C)cc(OC)c1C (stereo not shown) [Example 1-14] | 5690
38 | CCOc1cc([C@@H](C)N(CCCCc2ccccc2)C(=O)NC2(CC(=O)O)CC2)cc(OCC)c1C(C)=O [Example 1-145] | 1.72
39 | CCOc1cc([C@@H](C)N(CCCCc2ccccc2)C(=O)NC2(C(=O)O)CC(OCC)C2)cc(OCC)c1C(C)O (stereo partly shown) [Example 1-98] | 4.33
40 | CCOc1cc([C@@H](C)N(CCCCc2ccccc2)C(=O)NC2(C(=O)O)CC(N3CCN(C)CC3)C2)cc(OCC)c1C (stereo partly shown) [Example 1-109] | 312

Row | SMILES | IC50 [nM]
41 | CCOc1cc([C@@H](C)N(CCO[C@@H](C)c2ccccc2)C(=O)NC2(C(=O)O)CCC2)cc(OCC)c1C1CC1 [Example 4-115] | 1.23
42 | CCOc1cc(C(C)N(CCC(F)(F)Cc2ccccc2)C(=O)NC2(c3nn[nH]n3)CC(F)(F)C2)c(Cl)c(OCC)c1C(C)=O (stereo not shown) [Example 10-12] | 21.5
43 | CCOc1cc([C@@H](C)N(CCC(F)(F)Cc2ccccc2)C(=O)NC2(C(=O)O)CC(OC)C2)c(Cl)c(OCC)c1C(C)=O (stereo partly shown) [Example 5-42] | 7.45
44 | CCOc1cc([C@@H](C)N(CCCC(F)(F)c2ccccc2)C(=O)NC2(C(=O)O)CC(F)(F)C2)cc(OCC)c1C [Example 4-58] | 1.15
45 | CCOc1cc(C(C)N(CCCCc2ccccc2)C(=O)NC2(C(=O)O)CC(F)(F)C2)cc(OCC)c1C(=O)C(F)(F)F (stereo not shown) [Example 1-59] | 14.9
46 | CCOc1cc([C@@H](C)N(CC(C)CCc2ccccc2)C(=O)NC2(C(=O)O)CC(F)(F)C2)cc(OCC)c1C (stereo partly shown) [Example 4-38] | 10.5
47 | CCOc1cc(C(C)N(CCOCc2ccccc2)C(=O)NC2(C(=O)O)CCOCC2)cc(OCC)c1C1CC1 (stereo not shown) [Example 5-224] | 0.949
48 | CCNc1cc(C(C)N(CCCCc2ccccc2)C(=O)NC2(C(=O)O)CCC2)cc(OCC)c1C(C)=O (single isomer, unassigned) [Example 5-111] | 128
49 | CCOc1cc([C@@H](C)N(CCOCc2ccccc2)C(=O)NC2(C(=O)O)CC(F)(F)C2)c(Cl)c(OCC)c1C(C)O (single isomer, unassigned) [Example 5-56] | 1.04
50 | CCOc1cc(C(C)N(CCCCc2ccccc2)C(=O)NC2(C(=O)O)CC(F)(F)C2)cc(F)c1C(C)O (stereo not shown) [Example 1-72] | 4.22
51 | CCOc1cc([C@@H](C)N(CCCC(F)(F)c2ccccc2)C(=O)NC2(C(=O)O)CC2)cc(OCC)c1C(C)O (stereo partly shown) [Example 4-47] | 10.5
52 | CCOc1cc(C(C)N(CCOCc2ccccc2)C(=O)NC2(C(=O)O)CC2)c(Cl)c(OCC)c1C1CC1 (stereo not shown) [Example 5-185] | 0.919
53 | CCOc1cc([C@@H](C)N(CCC(F)(F)Cc2ccccc2)C(=O)NC2(C(=O)O)CC(F)(F)C2)cc(OCC)c1C1CC1 [Example 4-87] | 2.53
54 | CCOc1cc([C@@H](C)N(CCCC(F)(F)c2ccccc2)C(=O)NC2(C(=O)O)CCOCC2)cc(OCC)c1C1CC1 [Example 4-75] | 0.992
55 | CCOc1c(C(C)=O)ccc([C@@H](C)N(CCCC(F)(F)c2ccccc2)C(=O)NC2(C(=O)O)CC(F)(F)C2)c1C [Example 4-60] | 2.9
56 | CCOc1cc([C@@H](C)N(CCO[C@@H](C)c2ccccc2)C(=O)NC2(C(=O)O)CC(OCC)C2)cc(OCC)c1C(C)=O (stereo partly shown) [Example 4-132] | 5.62
57 | CCCOc1cc(C(C)N(CCCCc2ccccc2)C(=O)NC2(C(=O)O)CC(F)(F)C2)cc(OCC)c1C (stereo not shown) [Example 1-69] | 5.04
58 | CCOc1cc([C@@H](C)N(CCCC(F)(F)c2ccccc2)C(=O)NC2(C(=O)O)CC2)cc(OCC)c1C1CC1 [Example 4-46] | 1.21
